Experimental data as given in patent US10968200B2, “Salts of an LSD1 inhibitor and processes for preparing the same” (priority 2018, dated 2021).
Where a name gives a salt, the structure may show the parent alone. Read-outs that look alike come from different tables or passages of the source.

Key:
[1] = Solubility measurement of Compound 1 di-HCl in various solvents; assay type: physicochemical; conditions: thermodynamic from solid; for solubility: by vision; for solubility at 24 h: agitated 24 h
[2] = as above; assay type: physicochemical; conditions: organic solvent or mixture, thermodynamic from solid; for solubility at 36 h: 25 °C, 25±1° C., agitated 36 h; for solubility at 24 h: 50 °C, 50±1° C., agitated 24 h
Method: The solubility of Compound 1 di-HCl was measured at 25±1° C. and 50±1° C. according to the following procedures.
Compound 1 di-HCl was added to 2 mL of a solvent listed in Table 3 at 25±1° C. until the solution became cloudy. Another 10 mg of Compound 1 di-HCl was then added. The mixture was agitated at 25±1° C. for 36 h. The supernatant was filtered using a syringe filter. The saturated solution was pipetted into an HPLC vial, which was diluted with acetonitrile. The solubility of Compound 1 di-HCl was calculated for each solvent.
Compound 1 di-HCl was added to 2 mL of a solvent listed in Table 3 at 50±1° C. until the solution became cloudy. Another 20-25 mg of Compound 1 di-HCl was then added. The mixture was agitated at 50±1° C. for 24 h. The supernatant was filtered using a warmed syringe filter at 50±1° C. The saturated solution was pipetted into an HPLC vial, which was diluted with acetonitrile. The solubility of Compound 1 di-HCl was calculated for each solvent.

Structure (SMILES): N#CCC1(N2CCC(N[C@@H]3C[C@H]3c3ccccc3)CC2)CN(S(N)(=O)=O)C1 [Compound 1 di-HCl, 3-(cyanomethyl)-3-(4-{[(1R,2S)-2-phenylcyclopropyl]amino}piperidin-1-yl)azetidine-1-sulfonamide dihydrochloride]
- solubility at 36 h ([1]; 25 °C, organic solvent or mixture, solvent 1,4-Dioxane, 25±1° C., agitated 36 h): 200 µg/mL
- solubility at 36 h ([1]; 25 °C, organic solvent or mixture, solvent 1-Propanol, 25±1° C., agitated 36 h): 4600 µg/mL
- solubility at 36 h ([1]; 25 °C, organic solvent or mixture, solvent 5% Water in ACN, 25±1° C.): > 50000 µg/mL
- solubility ([1]; 25 °C, organic solvent or mixture, solvent 5% Water in MeOH, 25±1° C., read-out: Solubility at 25° C.): > 50000 µg/mL
- solubility ([1]; 25 °C, organic solvent or mixture, solvent ACN/water (9:1), 25±1° C., read-out: Solubility at 25° C.): > 50000 µg/mL
- solubility ([1]; 25 °C, organic solvent or mixture, solvent ACN:Water (4:1), 25±1° C., read-out: Solubility at 25° C.): > 50000 µg/mL
- solubility ([1]; 25 °C, organic solvent or mixture, solvent Chloroform, 25±1° C., read-out: Solubility at 25° C.): > 50000 µg/mL
- solubility ([1]; 25 °C, organic solvent or mixture, solvent DMF, 25±1° C., read-out: Solubility at 25° C.): > 50000 µg/mL
- solubility ([1]; 25 °C, organic solvent or mixture, solvent DMSO, 25±1° C., read-out: Solubility at 25° C.): > 50000 µg/mL
- solubility at 36 h ([1]; 25 °C, organic solvent or mixture, solvent EtOH, 25±1° C., agitated 36 h): 3370 µg/mL
- solubility at 36 h ([1]; 25 °C, organic solvent or mixture, solvent Ethyl formate, 25±1° C., agitated 36 h): 90 µg/mL
- solubility at 36 h ([1]; 25 °C, organic solvent or mixture, solvent MEK, 25±1° C., agitated 36 h): 160 µg/mL
- solubility at 36 h ([1]; 25 °C, organic solvent or mixture, solvent MIBK, 25±1° C., agitated 36 h): 60 µg/mL
- solubility ([1]; 25 °C, organic solvent or mixture, solvent MeOH/ACN (10 v/3 v), 25±1° C., read-out: Solubility at 25° C.): > 50000 µg/mL
- solubility ([1]; 25 °C, organic solvent or mixture, solvent MeOH/Water/ACN (6.0/0.5/1.0), 25±1° C., read-out: Solubility at 25° C.): > 50000 µg/mL
- solubility ([1]; 25 °C, organic solvent or mixture, solvent MeOH/water/ACN (6 v/0.5 v/3.5 v), 25±1° C., read-out: Solubility at 25° C.): > 50000 µg/mL
- solubility at 36 h ([1]; 25 °C, organic solvent or mixture, solvent MeOH/water/ACN (6 v/1 v/3 v), 25±1° C.): > 50000 µg/mL
- solubility ([1]; 25 °C, organic solvent or mixture, solvent MeOH/water/ACN (6 v/1.5 v/3 v), 25±1° C., read-out: Solubility at 25° C.): > 50000 µg/mL
- solubility at 36 h ([1]; 25 °C, organic solvent or mixture, solvent THF, 25±1° C., agitated 36 h): 40 µg/mL
- solubility ([1]; 25 °C, solvent Water, 25±1° C., read-out: Solubility at 25° C.): > 50000 µg/mL
- solubility at 24 h ([1]; 50 °C, organic solvent or mixture, solvent 2-Methoxyethanol, 50±1° C.): 48300 µg/mL
- solubility at 24 h ([1]; 50 °C, organic solvent or mixture, solvent 5% Water in ACN, 50±1° C.): 45400 µg/mL
- solubility ([1]; 50 °C, organic solvent or mixture, solvent 5% Water in MeOH, 50±1° C., read-out: Solubility at 50° C.): > 50000 µg/mL
- solubility ([1]; 50 °C, organic solvent or mixture, solvent ACN/water (9:1), 50±1° C., read-out: Solubility at 50° C.): > 50000 µg/mL
- solubility ([1]; 50 °C, organic solvent or mixture, solvent ACN:Water (4:1), 50±1° C., read-out: Solubility at 50° C.): > 50000 µg/mL
- solubility at 24 h ([1]; 50 °C, organic solvent or mixture, solvent Acetone, 50±1° C.): 850 µg/mL
- solubility ([1]; 50 °C, organic solvent or mixture, solvent Chloroform, 50±1° C., read-out: Solubility at 50° C.): > 50000 µg/mL
- solubility ([1]; 50 °C, organic solvent or mixture, solvent DMF, 50±1° C., read-out: Solubility at 50° C.): > 50000 µg/mL
- solubility ([1]; 50 °C, organic solvent or mixture, solvent DMSO, 50±1° C., read-out: Solubility at 50° C.): > 50000 µg/mL
- solubility at 24 h ([1]; 50 °C, organic solvent or mixture, solvent IPA, 50±1° C.): 1910 µg/mL
- solubility ([1]; 50 °C, organic solvent or mixture, solvent MeOH/ACN (10 v/3 v), 50±1° C., read-out: Solubility at 50° C.): > 50000 µg/mL
- solubility ([1]; 50 °C, organic solvent or mixture, solvent MeOH/Water/ACN (6.0/0.5/1.0), 50±1° C., read-out: Solubility at 50° C.): > 50000 µg/mL
- solubility ([1]; 50 °C, organic solvent or mixture, solvent MeOH/water/ACN (6 v/0.5 v/3.5 v), 50±1° C., read-out: Solubility at 50° C.): > 50000 µg/mL
- solubility ([1]; 50 °C, organic solvent or mixture, solvent MeOH/water/ACN (6 v/1 v/3 v), 50±1° C., read-out: Solubility at 50° C.): > 50000 µg/mL
- solubility ([1]; 50 °C, organic solvent or mixture, solvent MeOH/water/ACN (6 v/1.5 v/3 v), 50±1° C., read-out: Solubility at 50° C.): > 50000 µg/mL
- solubility at 24 h ([1]; 50 °C, organic solvent or mixture, solvent Methanol, 50±1° C.): > 50000 µg/mL
- solubility at 24 h ([1]; 50 °C, organic solvent or mixture, solvent n-BuOH, 50±1° C.): 2340 µg/mL
- solubility ([1]; 50 °C, solvent Water, 50±1° C., read-out: Solubility at 50° C.): > 50000 µg/mL
- solubility ([1]; MeOH/water/ACN (5 v/2 v/3 v), 25 °C, organic solvent or mixture, solvent Me0H/water/ACN (5 v/2 v/3 v), 25±1° C., read-out: Solubility at 25° C.): > 50000 µg/mL
- solubility ([1]; MeOH/water/ACN (5 v/2 v/3 v), 50 °C, organic solvent or mixture, solvent Me0H/water/ACN (5 v/2 v/3 v), 50±1° C., read-out: Solubility at 50° C.): > 50000 µg/mL
- solubility at 36 h ([2]; solvent 2-Methoxyethanol): 45900 µg/mL
- solubility at 36 h ([2]; solvent Acetone): 3490 µg/mL
- solubility at 36 h ([2]; solvent IPA): 1310 µg/mL
- solubility at 36 h ([2]; solvent MeCN): 610 µg/mL
- solubility at 36 h ([2]; solvent Methanol): 32300 µg/mL
- solubility at 36 h ([2]; solvent n-BuOH): 1310 µg/mL
- solubility at 24 h ([2]; solvent 1,4-Dioxane): 310 µg/mL
- solubility at 24 h ([2]; solvent 1-Propanol): 5210 µg/mL
- solubility at 24 h ([2]; solvent Dichloromethane): 60 µg/mL
- solubility at 24 h ([2]; solvent EtOAc): 30 µg/mL
- solubility at 24 h ([2]; solvent EtOH): 3630 µg/mL
- solubility at 24 h ([2]; solvent Ethyl formate): 50 µg/mL
- solubility at 24 h ([2]; solvent MEK): 160 µg/mL
- solubility at 24 h ([2]; solvent MIBK): 130 µg/mL
- solubility at 24 h ([2]; solvent MeCN): 6290 µg/mL
- solubility at 24 h ([2]; solvent THF): 90 µg/mL
